Test results published in the supplement of paper PMC11061612.

Key:
Experiment in all cases: combination Emax (second highest fraction inhibited in the dose matrix, 72 h); higher = more inhibition; extreme values may be limits of the assay
[1] = tested on: 8505C (Thyroid Gland Carcinoma)
Method in brief: (§1)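 After 24 hours at 37°C and 5% CO2 in 1536-well plates, cells in DMEM/F12 or RPMI plus 10% FBS received two-drug dose matrices for 72 hours. Viability came from CellTiter-Glo 2.0 luminescence and was scaled as inhibition, anchored at 0 by vehicle wells and at 1 by blank wells. Combination Emax is taken as the second-highest inhibition in the matrix, and Bliss excess as the observed combination effect less EA + EB − EA·EB, with EA and EB the single-agent effects.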

[2] = tested on: DAN-G (Pancreatic Carcinoma)
Method in brief: as §1

[3] = tested on: ESO51 (Esophageal Adenocarcinoma)
Method in brief: as §1

G-361 (Melanoma) = tested on: G-361 (Melanoma)
Method in brief: as §1

[4] = tested on: H9 (T-Cell Non-Hodgkin's Lymphoma)
Method in brief: as §1

[5] = tested on: HCC1187 (Breast Carcinoma)
Method in brief: as §1

[6] = tested on: HCC1419 (Breast Carcinoma)
Method in brief: as §1

[7] = tested on: JHH-4 (Hepatocellular Carcinoma)
Method in brief: as §1

[8] = tested on: KMS-12-BM (Plasma Cell Myeloma)
Method in brief: as §1

[9] = tested on: KP-3 (Pancreatic Carcinoma)
Method in brief: as §1

[10] = tested on: MOLM-13 (Acute Myeloid Leukemia)
Method in brief: as §1

[11] = tested on: NCCIT (Other Solid Carcinomas)
Method in brief: as §1

NCI-H2731 (Mesothelioma) = tested on: NCI-H2731 (Mesothelioma)
Method in brief: as §1

[12] = tested on: NCI-H526 (Small Cell Lung Carcinoma)
Method in brief: as §1

[13] = tested on: PC-3 (Prostate Carcinoma)
Method in brief: as §1

RD (Rhabdomyosarcoma) = tested on: RD (Rhabdomyosarcoma)
Method in brief: as §1

[14] = tested on: RPMI-8226 (Plasma Cell Myeloma)
Method in brief: as §1

[15] = tested on: SNU-398 (Hepatocellular Carcinoma)
Method in brief: as §1

[16] = tested on: SUP-B15 (B-Lymphoblastic Leukemia)
Method in brief: as §1

[17] = tested on: T-T (Esophageal Squamous Cell Carcinoma)
Method in brief: as §1

Compound	combination Emax [1]	combination Emax [2]	combination Emax [3]	combination Emax (G-361 (Melanoma))	combination Emax [4]	combination Emax [5]	combination Emax [6]	combination Emax [7]	combination Emax [8]	combination Emax [9]	combination Emax [10]	combination Emax [11]	combination Emax (NCI-H2731 (Mesothelioma))	combination Emax [12]	combination Emax [13]	combination Emax (RD (Rhabdomyosarcoma))	combination Emax [14]	combination Emax [15]	combination Emax [16]	combination Emax [17]
CN(C)CCCOc1ccc(-c2ccc3ncc4c(c3c2)n(C2CCOCC2)c(=O)n4C)cn1 [AZD0156] + CCN(CCO)CCCOc1ccc2c(Nc3cc(CC(=O)Nc4cccc(F)c4)[nH]n3)ncnc2c1 [AZD2811] (first compound max 1 µM, 7x7, partner max 1 µM)	0.102	0.321	0.163	0.256	0.727	0.844	0.118	0.095	0.495	0.0612	0.983	0.17	0.144	0.373	0.16	0.0353	0.556	0.339	0.896	0.0991
CCN(CCO)CCCOc1ccc2c(Nc3cc(CC(=O)Nc4cccc(F)c4)[nH]n3)ncnc2c1 [AZD2811] + O=C(c1cc(Cc2n[nH]c(=O)c3ccccc23)ccc1F)N1CCN(C(=O)C2CC2)CC1 [Olaparib] (first compound max 1 µM, 7x7, partner max 10 µM)	0.212	0.218	0.118	0.34	0.71	0.824	0.115	0.0395	0.34	0.144	1	0.226	0.226	0.642	0.179	0.19	0.491	0.365	0.976	0.212
Cn1cnc2c(F)c(Nc3ccc(Br)cc3Cl)c(C(=O)NOCCO)cc21 [Selumetinib] + CCN(CCO)CCCOc1ccc2c(Nc3cc(CC(=O)Nc4cccc(F)c4)[nH]n3)ncnc2c1 [AZD2811] (first compound max 10 µM, 7x7, partner max 1 µM)	0.388	0.519	0.454	0.798	1	0.94	0.113	0.63	0.397	0.202	0.999	0.109	0.201	0.32	0.141	0.297	0.446	0.662	1	0.269
Cc1c2c(nn1C)CSCc1cc(n(C)n1)CSc1cc(c3ccccc3c1)OCCCc1c(C(=O)O)n(C)c3c-2c(Cl)ccc13 [AZD5991] + C1CN(CCC1(C(=O)N[C@@H](CCO)C2=CC=C(C=C2)Cl)N)C3=NC=NC4=C3C=CN4 [Capivasertib] (first compound max 1 µM, 7x7, partner max 3 µM)	0.158	0.401	0.0827	1	0.847	1	0.555	0.211	1	0.135	1	0.82	0.21	0.47	0.287	0.535	0.976	1	1	0.922
COc1cc2ncnc(Nc3ccc(F)c(Cl)c3)c2cc1OCCCN1CCOCC1 [Gefitinib] + CC(C)n1c(=O)n(C)c2cnc3cc(F)c(-c4ccc(OCCCN5CCCCC5)nc4)cc3c21 [AZD1390] (first compound max 10 µM, 7x7, partner max 0.3 µM)	0.0956	0.0121	0.188	0.812	0.47	0.108	0.425	0.234	0.308	0.0907	0.776	0.418	0.0304	0.12	0.0447	0.0787	0.0829	0.0256	0.0538	0.411
CN(CCO)CC[C@H](CSc1ccccc1)Nc1ccc(S(=O)(=O)NC(=O)c2ccc(N3CCC([C@@H](O)c4ccccc4-c4ccc(Cl)cc4)CC3)cc2)cc1S(=O)(=O)C(F)(F)F [AZD4320] + CN(C)CCCOc1ccc(-c2ccc3ncc4c(c3c2)n(C2CCOCC2)c(=O)n4C)cn1 [AZD0156] (first compound max 1 µM, 7x7, partner max 1 µM)	0.174	0.346	0.193	0.288	0.996	0.154	0.245	0.293	1	0.0528	1	0.174	0.109	0.925	0.241	0.632	0.949	0.191	1	0.158
CCc1c2c(nc3ccc(O)cc13)-c1cc3c(c(=O)n1C2)COC(=O)[C@]3(O)CC [SN-38] + CN(C)CCCOc1ccc(-c2ccc3ncc4c(c3c2)n(C2CCOCC2)c(=O)n4C)cn1 [AZD0156] (first compound max 0.3 µM, 7x7, partner max 1 µM)	0.87	0.532	0.586	0.324	1	0.336	0.444	0.905	0.96	0.0449	1	0.246	0.406	1	0.688	0.246	0.77	0.231	1	0.803
Cn1cnc2c(F)c(Nc3ccc(Br)cc3Cl)c(C(=O)NOCCO)cc21 [Selumetinib] + C[C@@H]1COCCN1C2=NC(=NC(=C2)C3(CC3)[S@](=N)(=O)C)C4=C5C=CNC5=NC=C4 [AZD6738] (first compound max 10 µM, 7x7, partner max 10 µM)	0.515	0.675	0.857	0.848	1	0.636	0.174	0.752	0.865	0.156	1	0.649	0.173	0.427	0.39	0.522	0.871	0.742	0.986	0.292
C[C@@H]1COCCN1c1cc(C2([S@](C)(=N)=O)CC2)nc(-c2ccnc3[nH]ccc23)n1 [AZD6738] + O=C(c1cc(Cc2n[nH]c(=O)c3ccccc23)ccc1F)N1CCN(C(=O)C2CC2)CC1 [Olaparib] (first compound max 10 µM, 7x7, partner max 10 µM)	0.356	0.643	0.555	0.456	0.911	0.532	0.191	0.251	0.945		1	0.609	0.304	0.752	0.514	0.332	0.96	0.354	0.969	0.448
Cc1c2c(nn1C)CSCc1cc(n(C)n1)CSc1cc(c3ccccc3c1)OCCCc1c(C(=O)O)n(C)c3c-2c(Cl)ccc13 [AZD5991] + CN(C)CCCOc1ccc(-c2ccc3ncc4c(c3c2)n(C2CCOCC2)c(=O)n4C)cn1 [AZD0156] (first compound max 1 µM, 7x7, partner max 1 µM)	0.609	0.48	0.205	0.956	0.834	0.988	0.385	0.331	1		1	0.641	0.193	0.378	0.282	0.603	0.963	1	1	0.901
COc1nnc2ccc(N3CCC(c4ccc(OCCN5CCN(C)C(=O)[C@H]5C)cc4)CC3)nn12 [AZD5153] + CN(CC[C@H](CSC1=CC=CC=C1)NC2=C(C=C(C=C2)S(=O)(=O)NC(=O)C3=CC=C(C=C3)N4CCC(CC4)[C@H](C5=CC=CC=C5C6=CC=C(C=C6)Cl)O)S(=O)(=O)C(F)(F)F)CCO [AZD4320] (first compound max 1 µM, 7x7, partner max 1 µM)	0.441	0.345	0.666	0.67	1	0.366	0.277	0.36	1		1				0.347	0.939	0.996	0.451	1	
Cc1c2c(nn1C)CSCc1cc(n(C)n1)CSc1cc(c3ccccc3c1)OCCCc1c(C(=O)O)n(C)c3c-2c(Cl)ccc13 [AZD5991] + Cn1cnc2c(F)c(Nc3ccc(Br)cc3Cl)c(C(=O)NOCCO)cc21 [Selumetinib] (first compound max 1 µM, 7x7, partner max 3 µM)	0.42	0.84	0.361	0.992	1	0.986	0.284	0.492	1		1	0.579	0.151		0.245	0.625	0.96	1	1	0.936
C=CCn1c(=O)c2cnc(Nc3ccc(N4CCN(C)CC4)cc3)nc2n1-c1cccc(C(C)(C)O)n1 [AZD1775] + C[C@@H]1COCCN1C2=NC(=NC(=C2)C3(CC3)[S@](=N)(=O)C)C4=C5C=CNC5=NC=C4 [AZD6738] (first compound max 1 µM, partner max 10 µM)		0.763	0.754	0.676	1	0.683	0.221	0.498	1		0.999	0.905	0.464	0.873	0.498	0.655	0.983	0.563	0.914	0.73
